Results taken from patent US7645751B2, “Mandelic acid derivatives and their use as thrombin inhibitors” (AstraZeneca, priority 2000, dated 2010).
Structures can show the parent of a compound that is named as a salt.

Legend:
[1] = Test G: determination of in vitro stability in liver microsomes (human); format: in vitro ADME; settings: 37° C., up to 60 min, NADH/NADPH
Description: (§1) Liver microsomes are prepared from Sprague-Dawley rats and human liver samples according to internal SOPs. The compounds are incubated at 37° C. at a total microsome protein concentration of 3 mg/mL in a 0.05 mol/L TRIS buffer at pH 7.4, in the presence of the cofactors NADH (2.5 mmol/L) and NADPH (0.8 mmol/L). The initial concentration of compound is 5 or 10 μmol/L. Samples are taken for analysis up to 60 minutes after the start of the incubation. The enzymatic activity in the collected sample is immediately stopped by adding 20% […] at a volume corresponding to 3.3% of the total sample volume. The concentration of compound remaining (FINAL CONC) in the 60 min. sample is determined by means of LCMS using a sample collected at zero time as reference (START CONC). The % of degraded thrombin inhibitor is calculated as: […]

[2] = Test G: determination of in vitro stability in liver microsomes (rat); format: in vitro ADME; settings: 37° C., up to 60 min, NADH/NADPH
Description: as §1

Compound | conversion to the corresponding active inhibitor (free amidine) in liver microsomes from humans [1] | conversion to the corresponding active inhibitor (free amidine) in liver microsomes from rats [2] | melting point
CON=C(N)c1ccc(CNC(=O)[C@@H]2CCCN2C(=O)[C@H](O)c2cc(Cl)cc(OC(F)F)c2)cc1 [Example 33, Ph(3-Cl)(5-OCHF2)—(R)CH(OH)—C(O)-Pro-Pab(OMe)] | converted to the corresponding active inhibitor (free amidine) | converted to the corresponding active inhibitor (free amidine) | –
Ph(3-Cl)(5-OCHF2)—(R)CH(OH)C(O)-Aze-Pab(OcBu) [Example 1] | converted to the corresponding active inhibitor (free amidine) | converted to the corresponding active inhibitor (free amidine) | –
CON=C(N)c1ccc(CNC(=O)[C@@H]2CCN2C(=O)[C@H](O)c2cc(Cl)cc(OCC(F)F)c2)cc1 [Example 18, Ph(3-Cl)(5-OCH2CHF2)—(R)CH(OH)C(O)-Aze-Pab(OMe)] | converted to the corresponding active inhibitor (free amidine) | converted to the corresponding active inhibitor (free amidine) | –
CO/N=C(\N)c1cc(F)c(CNC(=O)[C@@H]2CCN2C(=O)[C@H](O)c2cc(Cl)cc(OC(F)F)c2)c(F)c1 [Example 40, Ph(3-Cl)(5-OCHF2)—(R)CH(OH)C(O)-Aze-Pab(2,6-diF)(OMe)] | converted to the corresponding active inhibitor (free amidine) | converted to the corresponding active inhibitor (free amidine) | –
CON=C(N)c1ccc(CNC(=O)[C@@H]2CCN2C(=O)[C@H](O)c2cc(Cl)cc(OCCF)c2)cc1 [Example 22, Ph(3-Cl)(5-OCH2CH2F)—(R)CH(OH)C(O)-Aze-Pab(OMe)] | converted to the corresponding active inhibitor (free amidine) | converted to the corresponding active inhibitor (free amidine) | –
N=C(N)c1cnc(CNC(=O)[C@@H]2CCN2C(=O)[C@H](O)c2cc(Cl)cc(OC(F)F)c2)nc1 (as salt: TFA) [Example 36, Ph(3-Cl)(5-OCHF2)—(R)CH(OH)C(O)-Aze-NH—CH2-((5-amidino)-2-pyrimidinyl)] | – | – | 86 to 87 °C
CON=C(N)c1ccc(CNC(=O)[C@@H]2CCN2C(=O)[C@H](CO)c2cc(Cl)cc(OC(F)(F)F)c2)cc1 [Example 11, Ph(3-Cl)(5-OCF3)—(S)CH(CH2OH)C(O)-Aze-Pab(OMe)] | converted to the corresponding active inhibitor (free amidine) | converted to the corresponding active inhibitor (free amidine) | –
CC(C)ON=C(N)c1ccc(CNC(=O)[C@@H]2CCN2C(=O)[C@H](O)c2cc(Cl)cc(OC(F)F)c2)cc1 [Example 45, Ph(3-Cl)(5-OCHF2)—(R)CH(OH)C(O)-Aze-Pab(OiPr)] | converted to the corresponding active inhibitor (free amidine) | converted to the corresponding active inhibitor (free amidine) | –
CON=C(N)c1ccc(CNC(=O)[C@@H]2CCN2C(=O)[C@H](O)c2cc(Cl)cc(OC(F)F)c2)cc1 [Example 12, Ph(3-Cl)(5-OCHF2)—(R)CH(OH)C(O)-Aze-Pab(OMe)] | converted to the corresponding active inhibitor (free amidine) | converted to the corresponding active inhibitor (free amidine) | –
CON=C(N)c1ccc(CNC(=O)[C@@H]2CCN2C(=O)[C@H](O)c2cc(Cl)cc(OCC(F)(F)F)c2)cc1 [Example 16, Ph(3-Cl)(5-OCH2CF3)—(R)CH(OH)C(O)-Aze-Pab(OMe)] | converted to the corresponding active inhibitor (free amidine) | converted to the corresponding active inhibitor (free amidine) | –
CCON=C(N)c1ccc(CNC(=O)[C@@H]2CCN2C(=O)[C@H](O)c2cc(Cl)cc(OC(F)F)c2)cc1 [Example 43, Ph(3-Cl)(5-OCHF2)—(R)CH(OH)C(O)-Aze-Pab(OEt)] | converted to the corresponding active inhibitor (free amidine) | converted to the corresponding active inhibitor (free amidine) | –
Ph(3-Br)(5-OCHF2)—(R)CH(OH)C(O)-Aze-Pab(OMe) [Example 29] | converted to the corresponding active inhibitor (free amidine) | converted to the corresponding active inhibitor (free amidine) | –
CON=C(N)c1ccc(CNC(=O)[C@@H]2CCN2C(=O)[C@H](O)c2cc(Cl)cc(OC(F)(F)F)c2)cc1 [Example 7, Ph(3-Cl)(5-OCF3)—(R)CH(OH)C(O)-Aze-Pab(OMe)] | converted to the corresponding active inhibitor (free amidine) | converted to the corresponding active inhibitor (free amidine) | –
CON=C(N)c1ccc(CNC(=O)[C@@H]2CCN2C(=O)[C@H](O)c2cc(Cl)cc(OCF)c2)cc1 [Example 20, Ph(3-Cl)(5-OCH2F)—(R)CH(OH)C(O)-Aze-Pab(OMe)] | converted to the corresponding active inhibitor (free amidine) | converted to the corresponding active inhibitor (free amidine) | –
CON=C(N)c1ccc(CNC(=O)[C@@H]2CCN2C(=O)[C@H](O)c2cc(F)cc(OC(F)F)c2)cc1 [Example 26, Ph(3-F)(5-OCHF2)—(R)CH(OH)C(O)-Aze-Pab(OMe)] | converted to the corresponding active inhibitor (free amidine) | converted to the corresponding active inhibitor (free amidine) | –
CON=C(N)c1ccc(CNC(=O)[C@@H]2CCN2C(=O)[C@H](O)c2cc(Cl)cc(OC(CF)CF)c2)cc1 [Example 24, Ph(3-Cl)(5-OCH(CH2F)2)—(R)CH(OH)C(O)-Aze-Pab(OMe)] | converted to the corresponding active inhibitor (free amidine) | converted to the corresponding active inhibitor (free amidine) | –
CO/N=C(\N)c1cnc(CNC(=O)[C@@H]2CCN2C(=O)[C@H](O)c2cc(Cl)cc(OC(F)F)c2)nc1 [Example 37, Ph(3-Cl)(5-OCHF2)—(R)CH(OH)C(O)-Aze-NH—CH2-((5-methoxyamidino)-2-pyrimidinyl)] | converted to the corresponding active inhibitor (free amidine) | converted to the corresponding active inhibitor (free amidine) | –
NC(=NO)c1ccc(CNC(=O)[C@@H]2CCN2C(=O)[C@H](O)c2cc(Cl)cc(OC(F)F)c2)cc1 [Example 2, Ph(3-Cl)(5-OCHF2)—(R)CH(OH)C(O)-Aze-Pab(OH)] | converted to the corresponding active inhibitor (free amidine) | converted to the corresponding active inhibitor (free amidine) | –
